Four compounds from patent publication US10301203B2, “Chloroperoxidase-catalyzed degradation of pharmaceutical pollutants in wastewater” (THE FLORIDA INTERNATIONAL UNIVERSITY BOARD OF TRUSTEES, priority 2017, dated 2019) can be followed below.

In brackets after ≈: the same amount, converted by molar mass.

Data set [1] is described as follows: MTT assay, cell viability. It counts as cell-based. Conditions: human, MDA-MB-231 breast cancer cells, read-out: MTT incorporation (cell viability) as percentage of control. How it is done:
After incubation, the medium was removed and formazan crystals were dissolved in detergent reagent following the manufacturer's instructions (ATCC). Optical density for each condition was determined at 570 nm. MTT incorporation was expressed as percentage of the control in the absence of compounds.

Data set [2] has as its target T1, chloroperoxidase (CPO) (Leptoxyphium fumago, UniProt P04963).
T1 sequence (P04963 21-319 limits assumed): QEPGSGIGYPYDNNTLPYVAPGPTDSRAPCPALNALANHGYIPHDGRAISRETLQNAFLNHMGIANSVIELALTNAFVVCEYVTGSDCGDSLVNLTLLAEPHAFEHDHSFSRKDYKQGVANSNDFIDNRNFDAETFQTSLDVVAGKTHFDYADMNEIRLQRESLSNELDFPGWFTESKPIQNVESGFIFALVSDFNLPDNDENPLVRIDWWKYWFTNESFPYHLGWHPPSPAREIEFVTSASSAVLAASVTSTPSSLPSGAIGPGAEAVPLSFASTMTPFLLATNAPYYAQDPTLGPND
As to the kind of experiment: CPO-catalyzed degradation in CPO-H2O2-Cl- system, LC-Q-TOF-MS. It counts as biochemical, Caldariomyces fumago. Also on record: The isolation of CPO proposed in this study was a modification of the protocol reported by Morris and Hager (1966); made in house; host or cells: native producer.
Description: The mixture was centrifuged at 3,000 g in Centriprep® centrifugal filter unit with a 30,000 Dalton cut-off membrane (EMD Millipore, Billerica, Mass., USA). The yielded product was collected after being centrifuged for 1 min. Ethyl acetate was used to extract the filtrate while shaking vigorously, and the supernatant was evaporated to dryness using nitrogen gas. The dried metabolites were dissolved in H2O/methanol (95:5 v/v) to achieve a final concentration of 1 mg/L (ppm). Each sample was either stored in a freezer at −20° C. or immediately run in the LC-Q-TOF-MS mass spectrometer system.
Chromatographic separation and identification of metabolites was performed using the Agilent 1290 Infinity UPLC system coupled with Agilent 6530 Q-TOF mass spectrometer. The Agilent MassHunter Data Acquisition Software (rev. B0.06.00) was used to control the UPLC and the mass spectrometer. Mass Hunter Qualitative Data Analysis Software (Rev. B.07.00) was used for data mining and identification. An Agilent ZORBAX Eclipse plus C18 Rapid Resolution High Definition (RRHD) column (100 mm×1.8 μm) was applied, with the column temperature set at 30° C. via a thermostatted column compartment (TCC). An infinity 1290 automatic injector was used to inject 1 μL of the sample to the column. […]

Data set [3] deals with T1, chloroperoxidase (CPO). Description: CPO-catalyzed degradation of CBZ, UV-Vis at 285 nm. Conditions: 20 mM Cl-, 0.07 mM CBZ, 0.07 mM H2O2, 2.5 nM CPO. The arrangement: The isolation of CPO proposed in this study was a modification of the protocol reported by Morris and Hager (1966); made in house; host or cells: native producer. It counts as biochemical, Caldariomyces fumago. How it is done: A VARIAN UV-Vis spectrophotometer (Cary 200 Bio) was used to collect the UV spectra of the degradation products. The drug solution was scanned by dissolving 0.07 mM CBZ in 100 mM KH2PO4 buffer with 20 mM KCl at pH 2.75. The same solution was monitored after being mixed with 0.35 mM H2O2. UV spectra were recorded after the addition of 5 nM CPO for 1 min., 2.5 min., and 4 min.
The effect of the concentration of chloride was investigated. Degradation was carried out in 100 mM phosphate buffer at pH 3.0 with 0.07 mM CBZ and 0.07 mM H2O2. Concentration of chloride was increased from 0 to 20 mM. 285 nm wavelength was monitored immediately after 2.5 nM CPO was added.
The degradation rate at pH range of 2.0 to 5.0 was investigated to probe the effect of pH on the CPO-catalyzed reaction. The reaction was carried out in 100 mM phosphate buffer with 20 mM KCl, 0.07 mM CBZ, and 0.07 mM H2O2. […] 285 nm wavelength was monitored immediately after the addition of 2.5 nM CPO. The calculated time was 0.2 to 0.4 min.
The degradation rate of CBZ was determined by different concentrations of H2O2, ranging from 0.07 to 0.71 mM, in 100 mM phosphate buffer with 20 mM KCl and 0.07 mM CBZ at pH 3.0. A wavelength of 285 nm was monitored immediately after the addition of 5 nM CPO. The degradation rate was calculated at 0.1 to 0.3 min.
The rate was calculated by monitoring absorbance at 285 nm from 0.1 to 0.2 min. […]

For data set [4], the target named is T1, chloroperoxidase (CPO). As to the kind of experiment: CPO-catalyzed degradation of diclofenac and naproxen, HPLC. It counts as biochemical, C. fumago. The arrangement: CPO was isolated from the growth medium of C. fumago; made in house; host or cells: Caldariomyces fumago growth medium (native producer). Conditions: for CPO concentration for complete degradation: 15 μmol/L drug, 0.1 mmol/L H2O2; for fraction of drug degraded within 1 min / time to complete degradation: optimum reaction condition; for pH of maximum degradation efficiency: pH range 2-6. How it is done: Enzymatic degradation of both drugs was carried out in 0.1 mol·L-1 phosphate buffer in a centrifugal tube with a total volume of 3.0 mL containing CPO (0.25-0.23 nmol·L-1), 20 mmol·L-1 KCl, and drugs (15 μmol·L^−1) at pH 2˜6 at 298K. The reaction was started by adding H2O2 (0.015-0.3 mmol·L^−1) in the absence of light under magnetic stirring and was continued for 20 min. The supernatant of the reaction mixture was extracted 3 times using ethyl acetate. The combined organic extract was concentrated by rotary evaporation (0.09 MPa, 308K) to remove the solvent. The extracts were then dissolved in acetonitrile and methanol, respectively, for HPLC (LC-20AT, Shimadzu) analysis. The mobile phase consisted of 80:20 (v/v) acetonitrile and water for diclofenac and 90:10 (v/v) methanol and water for naproxen, and the flow rate was 0.5 ml·min^−1. The detector was set at 274 nm and 235 nm for diclofenac and naproxen, respectively. The quantitative analysis of the target compounds was based on the standard curve (correlation coefficients were >0.999). The effect of reaction parameters (pH, concentration of enzyme/H2O2, and reaction time) on degradation efficiency was investigated and optimized.
All experiments were triplicated and data reported were mean values of three independent measurements.

The test system of another data set is C. pyrenoidosa. As to the kind of experiment: Growth-inhibitory (eco-toxicity) test on freshwater green alga. It counts as cell-based, Chlorella pyrenoidosa. Conditions: Auxenochlorella pyrenoidosa, 72 h; at the end of CPO-catalyzed degradation (product mixture of the named drug). How it is done: Freshwater unicellular green alga, C. pyrenoidosa (provided by the Institute of Wuhan Hydrobiology, Chinese Academic of Science), was cultivated in nutrient media of blue green medium (BG11) at 298K and illuminated with cool-white fluorescent lights at a continuous light intensity of 2000 Lx. For cell experiments, C. pyrenoidosa was exposed, during its log growth phase, to the toxicant at five different concentrations (maintain final concentration ranging from 0.01 to 0.36 mg/L) for 3-4 days at 298K. The concentration of the alga was determined by monitoring the change of absorption at 680 nm (Ma et al., 2006). The toxicity tests for each drug concentration were conducted in triplicate.
The growth inhibition rate for each sample was calculated.
However, toxicity evaluation about the products from diclofenac and naproxen are not readily available. Biological assays offer a direct measure to evaluate the magnitude of the potential health risk of chemicals. Therefore, a growth-inhibitory test was carried out using C. Pyrenoidosa.

`NC(=O)N1c2ccccc2C=Cc2ccccc21` [CBZ, Carbamazepine]: in data set [1], the viability at 24 h, 0.0425 μg/ml stood at 80%; the viability at 24 h, 0.85 μg/ml came out at 60%; the viability at 24 h, 1.7 μg/ml was determined as 45%. For the same compound, the degradation efficiency on chloroperoxidase (CPO) [2] (10.59 μM (2.5 mg/L) CBZ, 107.19 μM H2O2, 2.9 nM CPO, 10 min) came to 100%. The “optimum pH for degradation” value on chloroperoxidase (CPO) [3] was 3.0.
With `Cc1cc(C)nc(NS(=O)(=O)c2ccc(N)cc2)n1` [SMZ, Sulfamethazine], in data set [1], the viability at 24 h, 0.0425 μg/ml amounted to 80%; the viability at 24 h, 0.85 μg/ml is 50%; the viability at 24 h, 1.7 μg/ml turned out to be 40%. On chloroperoxidase (CPO) [2] (62.45 μM SMZ, 1.3 nM CPO, H2O2 added stepwise, 30 min), this compound returned a degradation efficiency of 100%.
For the compound `COc1ccc2cc(C(C)C(=O)O)ccc2c1` (stereo not shown) [naproxen, 2-(6-methoxynaphthalen-2-yl)propionic acid], at chloroperoxidase (CPO) [4], the “CPO concentration for complete degradation” value was more than 20.0 nmol/L, the “fraction of drug degraded within 1 min” value was approximately 75%, the “time to complete degradation” value stood at 7 min and the “pH of maximum degradation efficiency” value is approximately 3.2. In addition, in the data set with C. pyrenoidosa, the EC50 was 0.33 µg/mL (≈ 1.43 µM).
The like results for `O=C([O-])Cc1ccccc1Nc1c(Cl)cccc1Cl.[Na+]` [diclofenac, 2-[(2,6-dichlorophenyl)amino]benzeneacetic acid; sodium salt] were, in that order, “above 5.0 nmol·L^−1”, “about 70%”, 9 min, approximately 3.2 and 0.25 µg/mL.
